Reference: the NIST ThermoML archive (doi:10.1016/j.jct.2004.06.001)

Test: mn = molality of the nth substance listed, in mol/kg
Settings: Liquid

[I-].[Li+] [lithium iodide] + O
Settings	mass density [kg/m3]
296.95 K, 2530 kPa, m1 = 1.605	1145.62
296.95 K, 7845 kPa, m1 = 1.605	1148.05
296.95 K, 17808 kPa, m1 = 1.605	1152.57
296.95 K, 25811 kPa, m1 = 1.605	1156.03
297.35 K, 2354 kPa, m1 = 0.6621	1061.06
297.35 K, 12415 kPa, m1 = 0.6621	1065.64
297.35 K, 21241 kPa, m1 = 0.6621	1069.52
297.35 K, 29243 kPa, m1 = 0.6621	1072.92
298.15 K, 101.33 kPa, m1 = 0.0906	1005.8
298.15 K, 101.33 kPa, m1 = 0.2832	1024.34
298.15 K, 101.33 kPa, m1 = 0.6621	1059.93
298.15 K, 101.33 kPa, m1 = 1.605	1144.13
298.15 K, 101.33 kPa, m1 = 3.089	1266.24
308.15 K, 101.33 kPa, m1 = 0.0906	1002.8
308.15 K, 101.33 kPa, m1 = 0.2832	1021.1
308.15 K, 101.33 kPa, m1 = 0.6621	1056.4
308.15 K, 101.33 kPa, m1 = 1.605	1139.99
308.15 K, 101.33 kPa, m1 = 3.089	1261.08
310.65 K, 2040 kPa, m1 = 3.089	1260.87
310.65 K, 17475 kPa, m1 = 3.089	1267.92
310.65 K, 24026 kPa, m1 = 3.089	1270.75
313 K, 3020 kPa, m1 = 0.2832	1020.66
313 K, 10866 kPa, m1 = 0.2832	1024.09
313 K, 21163 kPa, m1 = 0.2832	1028.44
313 K, 31204 kPa, m1 = 0.2832	1032.59
313.75 K, 2275 kPa, m1 = 0.0906	1001.71
313.75 K, 12572 kPa, m1 = 0.0906	1006.16
313.75 K, 28596 kPa, m1 = 0.0906	1012.88
318.15 K, 101.33 kPa, m1 = 0.0906	998.97
318.15 K, 101.33 kPa, m1 = 0.2832	1017.22
318.15 K, 101.33 kPa, m1 = 0.6621	1052.27
318.15 K, 101.33 kPa, m1 = 1.605	1135.39
318.15 K, 101.33 kPa, m1 = 3.089	1255.57
328.15 K, 101.33 kPa, m1 = 0.0906	994.42
328.15 K, 101.33 kPa, m1 = 0.2832	1012.6
328.15 K, 101.33 kPa, m1 = 0.6621	1047.5
328.15 K, 101.33 kPa, m1 = 1.605	1130.28
328.15 K, 101.33 kPa, m1 = 3.089	1249.72
338.15 K, 101.33 kPa, m1 = 0.0906	989.22
338.15 K, 101.33 kPa, m1 = 0.2832	1007.35
338.15 K, 101.33 kPa, m1 = 0.6621	1042.13
338.15 K, 101.33 kPa, m1 = 1.605	1124.64
338.15 K, 101.33 kPa, m1 = 3.089	1243.52
348.15 K, 101.33 kPa, m1 = 0.0906	983.48
348.15 K, 101.33 kPa, m1 = 0.2832	1001.55
348.15 K, 101.33 kPa, m1 = 0.6621	1036.22
348.15 K, 101.33 kPa, m1 = 1.605	1118.49
348.15 K, 101.33 kPa, m1 = 3.089	1236.98
348.4 K, 2157 kPa, m1 = 0.6621	1037.06
348.4 K, 11670 kPa, m1 = 0.6621	1041.32
348.4 K, 23850 kPa, m1 = 0.6621	1046.48
348.4 K, 29910 kPa, m1 = 0.6621	1048.86
348.45 K, 3334 kPa, m1 = 0.2832	1002.87
348.45 K, 13808 kPa, m1 = 0.2832	1007.4
348.45 K, 22536 kPa, m1 = 0.2832	1011.08
348.45 K, 27851 kPa, m1 = 0.2832	1013.21
348.5 K, 3589 kPa, m1 = 1.605	1119.98
348.5 K, 10787 kPa, m1 = 1.605	1123.27
348.5 K, 21516 kPa, m1 = 1.605	1128.02
348.5 K, 27694 kPa, m1 = 1.605	1130.57
349.05 K, 2275 kPa, m1 = 0.0906	983.91
349.05 K, 7668 kPa, m1 = 0.0906	986.28
349.05 K, 16573 kPa, m1 = 0.0906	990.13
349.05 K, 21241 kPa, m1 = 0.0906	992.14
373.2 K, 6276 kPa, m1 = 3.089	1222.39
373.2 K, 17358 kPa, m1 = 3.089	1227.68
373.2 K, 24674 kPa, m1 = 3.089	1230.96
398.15 K, 3432 kPa, m1 = 0.0906	949.25
398.15 K, 5511 kPa, m1 = 0.6621	1002.67
398.15 K, 8728 kPa, m1 = 0.0906	951.87
398.15 K, 15593 kPa, m1 = 0.6621	1007.74
398.15 K, 16181 kPa, m1 = 0.0906	955.54
398.15 K, 22554 kPa, m1 = 0.6621	1011.13
398.15 K, 22710 kPa, m1 = 0.0906	958.45
398.15 K, 29087 kPa, m1 = 0.6621	1013.99
398.2 K, 2942 kPa, m1 = 1.605	1082.97
398.2 K, 10787 kPa, m1 = 1.605	1087.05
398.2 K, 21025 kPa, m1 = 1.605	1092.08
398.2 K, 28753 kPa, m1 = 1.605	1095.49
398.3 K, 3511 kPa, m1 = 0.2832	967.1
398.3 K, 11925 kPa, m1 = 0.2832	971.24
398.3 K, 21398 kPa, m1 = 0.2832	975.83
398.3 K, 30636 kPa, m1 = 0.2832	979.93
448.15 K, 4570 kPa, m1 = 3.089	1157.85
448.15 K, 4903 kPa, m1 = 0.2832	922.17
448.15 K, 14573 kPa, m1 = 3.089	1163.98
448.15 K, 15593 kPa, m1 = 0.2832	928.54
448.15 K, 22869 kPa, m1 = 3.089	1168.32
448.15 K, 24340 kPa, m1 = 0.2832	933.52
448.3 K, 3668 kPa, m1 = 0.0906	902.88
448.3 K, 7924 kPa, m1 = 0.0906	905.5
448.3 K, 15436 kPa, m1 = 0.0906	910.16
448.3 K, 21810 kPa, m1 = 0.0906	913.8
448.33 K, 4805 kPa, m1 = 0.6621	957.8
448.33 K, 15200 kPa, m1 = 0.6621	963.27
448.33 K, 24026 kPa, m1 = 0.6621	968.45
448.33 K, 28675 kPa, m1 = 0.6621	970.94
448.45 K, 3099 kPa, m1 = 1.605	1038.18
448.45 K, 10375 kPa, m1 = 1.605	1042.6
448.45 K, 25497 kPa, m1 = 1.605	1050.41
472.53 K, 8081 kPa, m1 = 0.2832	897.8
472.53 K, 16985 kPa, m1 = 0.2832	904
472.53 K, 23614 kPa, m1 = 0.2832	908.3
474.75 K, 6943 kPa, m1 = 1.605	1014.9
474.75 K, 13317 kPa, m1 = 1.605	1020.2
474.75 K, 24595 kPa, m1 = 1.605	1027
475 K, 6198 kPa, m1 = 0.6621	929.3
475 K, 15926 kPa, m1 = 0.6621	936.2
475 K, 24517 kPa, m1 = 0.6621	941.7
479.05 K, 7590 kPa, m1 = 3.089	1129.2
479.05 K, 16907 kPa, m1 = 3.089	1135.6
479.05 K, 21771 kPa, m1 = 3.089	1138.5
521.05 K, 7924 kPa, m1 = 0.6621	872.4
521.05 K, 11846 kPa, m1 = 0.6621	876.3
521.05 K, 18221 kPa, m1 = 0.6621	882.3
522.63 K, 9473 kPa, m1 = 0.2832	834.6
522.63 K, 21516 kPa, m1 = 0.2832	846.6
522.63 K, 27047 kPa, m1 = 0.2832	851.1
522.91 K, 8493 kPa, m1 = 1.605	961.6
522.91 K, 14867 kPa, m1 = 1.605	967.1
522.91 K, 20050 kPa, m1 = 1.605	971.2
523.15 K, 7178 kPa, m1 = 3.089	1079.91
523.15 K, 12415 kPa, m1 = 3.089	1084.49
523.15 K, 21810 kPa, m1 = 3.089	1091.96
572.75 K, 12415 kPa, m1 = 0.6621	795.1
572.75 K, 19201 kPa, m1 = 0.6621	806
572.75 K, 24419 kPa, m1 = 0.6621	813.4
573.15 K, 11591 kPa, m1 = 1.605	896.3
573.15 K, 16338 kPa, m1 = 1.605	902.6
573.15 K, 20672 kPa, m1 = 1.605	907.3
575.75 K, 15022 kPa, m1 = 0.2832	750.9
575.75 K, 19201 kPa, m1 = 0.2832	758.8
575.75 K, 24516 kPa, m1 = 0.2832	767.7
600.25 K, 12650 kPa, m1 = 3.089	1019.35
600.25 K, 18534 kPa, m1 = 3.089	1025.9
600.25 K, 22143 kPa, m1 = 3.089	1029.61
